# Measurements published in the Kinase Knowledgebase extract (Sharma et al. 2016).
# Biological target: EGFR (human) (UniProt P00533)
# Settings: her 14
# EGFR (human), sequence (P00533 whole entry, looked up): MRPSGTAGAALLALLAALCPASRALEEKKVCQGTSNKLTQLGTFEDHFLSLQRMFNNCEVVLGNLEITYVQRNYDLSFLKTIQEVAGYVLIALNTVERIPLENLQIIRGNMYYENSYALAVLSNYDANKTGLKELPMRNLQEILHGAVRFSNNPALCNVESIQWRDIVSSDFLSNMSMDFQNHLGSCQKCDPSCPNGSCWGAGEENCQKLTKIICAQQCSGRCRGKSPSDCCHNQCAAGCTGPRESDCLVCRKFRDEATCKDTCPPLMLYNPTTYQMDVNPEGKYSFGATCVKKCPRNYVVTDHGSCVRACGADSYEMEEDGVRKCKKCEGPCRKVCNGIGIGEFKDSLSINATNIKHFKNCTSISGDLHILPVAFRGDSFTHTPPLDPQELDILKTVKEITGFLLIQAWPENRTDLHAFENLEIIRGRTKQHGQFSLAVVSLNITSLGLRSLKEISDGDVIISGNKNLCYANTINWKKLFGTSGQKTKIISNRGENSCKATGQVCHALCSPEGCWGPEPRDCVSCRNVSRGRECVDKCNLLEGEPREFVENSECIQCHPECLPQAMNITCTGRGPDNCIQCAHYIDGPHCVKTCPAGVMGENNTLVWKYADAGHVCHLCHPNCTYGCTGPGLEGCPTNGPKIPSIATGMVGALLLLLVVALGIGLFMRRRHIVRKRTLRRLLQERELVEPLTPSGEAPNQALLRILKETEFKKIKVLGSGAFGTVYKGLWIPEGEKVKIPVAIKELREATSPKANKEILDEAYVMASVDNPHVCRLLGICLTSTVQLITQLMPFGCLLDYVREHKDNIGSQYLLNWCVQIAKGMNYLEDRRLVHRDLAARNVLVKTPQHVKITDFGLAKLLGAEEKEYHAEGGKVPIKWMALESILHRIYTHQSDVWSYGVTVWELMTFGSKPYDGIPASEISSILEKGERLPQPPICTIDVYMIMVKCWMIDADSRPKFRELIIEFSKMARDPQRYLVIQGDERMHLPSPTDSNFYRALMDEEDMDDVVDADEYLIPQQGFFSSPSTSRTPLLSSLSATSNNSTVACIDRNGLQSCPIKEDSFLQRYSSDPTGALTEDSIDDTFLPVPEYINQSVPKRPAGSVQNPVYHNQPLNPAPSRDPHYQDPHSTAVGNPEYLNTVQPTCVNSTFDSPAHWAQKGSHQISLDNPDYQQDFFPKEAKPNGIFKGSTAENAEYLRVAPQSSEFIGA
row,IC50,SMILES
1,10 µM,COc1cc(/C=C(\C#N)C(N)=O)cc(CSCc2ccccc2Cl)c1O
2,16 µM,COc1cc(/C=C(\C#N)C(N)=O)cc(CSc2ccccn2)c1O
3,12.5 µM,COc1cc(/C=C(\C#N)C(N)=O)cc(CSCc2ccccc2)c1O
4,> 50 µM,COc1cc(/C=C(\C#N)C(N)=O)cc(CSc2ccccc2C(=O)O)c1O
5,12.5 µM,COc1cc(/C=C(\C#N)C(N)=O)cc(CSc2ccccc2)c1O
6,6 µM,COc1cc(/C=C(\C#N)C(N)=O)cc(CSc2nc3ccccc3o2)c1O
7,6 µM,COc1cc(C=C(C#N)C#N)cc(CSc2ccccc2)c1O
8,> 50 µM,COc1cc(C=C(C#N)C#N)cc(CSCC(=O)O)c1O
9,9 µM,COc1cc(/C=C(\C#N)C(N)=O)cc(CSc2ccccc2NC(C)=O)c1O
10,> 50 µM,COc1cc(C=C(C#N)C#N)cc(CSc2ccccc2C(=O)O)c1O

# The remaining lines, values behind:
row,SMILES,IC50
1,COc1cc(C=C(C#N)C#N)cc(CS(=O)(=O)c2ccc(C)cc2)c1O,15 µM
2,COc1cc(/C=C(\C#N)C(N)=O)cc(CSCc2ccc(Cl)cc2)c1O,20 µM
3,N#C/C(=C\c1cc(O)c(O)c(CSc2nc3ccccc3s2)c1)C(N)=O,> 50 µM
4,COc1cc(/C=C(\C#N)C(N)=O)cc(CSc2ccc3ccccc3c2)c1O,10 µM
5,N#C/C(=C\c1cc(O)c(O)c(CSCc2ccccc2)c1)C(N)=O,3 µM
6,Cc1cc(C=C(C#N)C#N)cc(O)c1O,13 µM
7,COc1cc(/C=C(\C#N)C(=O)c2ccc(O)c(O)c2)cc(CSCc2ccccc2)c1O,2 µM
8,COc1cc(/C=C(\C#N)C(N)=O)cc(CSc2nc3ccccc3[nH]2)c1O,35 µM
9,COc1cc(/C=C(\C#N)C(N)=O)cc(CSc2ccc(O)cc2)c1O,2 µM

# Biological target: EGFR (UniProt P00533)
# Sequence (P00533 whole entry, looked up): as above
# Settings: not given
row,IC50,SMILES
1,4.5 µM,COc1cc(/C=C(\C#N)C(=O)c2ccc(C)cc2)cc(CSCc2ccccc2)c1O
